Data: ChEMBL document CHEMBL3351514, “Design and synthesis of new of 3-(benzo[d]isoxazol-3-yl)-1-substituted pyrrolidine-2, 5-dione derivatives as anticonvulsants” (Eur J Med Chem, 2014)
Active and inactive are the calls of the source. No cut-off for these calls is given here.

Legend:
[1] = tested on: Mus musculus; assay: Anticonvulsant activity in ip dosed albino Swiss mouse assessed as protection against maximal electroshock-induced seizures at 0.5 hr; format: functional
[2] = tested on: Mus musculus; assay: Anticonvulsant activity in albino Swiss mouse assessed as assessed as protection against subcutaneous pentylenetetrazol-induced seizures at 300 mg/kg, ip at 4 hrs; format: functional, organism-based; set-up: dose 300 mg/kg
[3] = tested on: Mus musculus; assay: Anticonvulsant activity in albino Swiss mouse assessed as protection against maximal electroshock-induced seizures at 300 mg/kg, ip at 4 hrs; format: functional, organism-based; set-up: dose 300 mg/kg
[4] = tested on: Mus musculus; assay: Anticonvulsant activity in ip dosed albino Swiss mouse assessed as assessed as protection against subcutaneous pentylenetetrazol-induced seizures at 0.5 hr; format: functional
[5] = tested on: Mus musculus; assay: Anticonvulsant activity in albino Swiss mouse assessed as protection against maximal electroshock-induced seizures at 300 mg/kg, ip at 0.5 hr; format: functional, organism-based; set-up: dose 300 mg/kg
[6] = tested on: Mus musculus; assay: Anticonvulsant activity in albino Swiss mouse assessed as assessed as protection against subcutaneous pentylenetetrazol-induced seizures at 300 mg/kg, ip at 0.5 hr; format: functional, organism-based; set-up: dose 300 mg/kg
[7] = tested on: Mus musculus; assay: Anticonvulsant activity in ip dosed albino Swiss mouse assessed as assessed as protection against subcutaneous pentylenetetrazol-induced seizures at 4 hrs; format: functional
[8] = tested on: Mus musculus; assay: Anticonvulsant activity in ip dosed albino Swiss mouse assessed as protection against maximal electroshock-induced seizures at 4 hrs; format: functional
[9] = Neurotoxicity in ip dosed albino Wistar rat at 0.5 hr by rotorod test; format: toxicity, organism-based; details: in vivo
[10] = tested on: Rattus norvegicus; assay: Anticonvulsant activity in albino Wistar rat assessed as protection against subcutaneous pentylenetetrazol-induced seizures at 50 mg/kg, po at 0.5 hr; format: functional
[11] = tested on: Rattus norvegicus; assay: Anticonvulsant activity in albino Wistar rat assessed as protection against subcutaneous pentylenetetrazol-induced seizures at 50 mg/kg, po at 1 hr; format: functional
[12] = tested on: Rattus norvegicus; assay: Anticonvulsant activity in albino Wistar rat assessed as protection against subcutaneous pentylenetetrazol-induced seizures at 50 mg/kg, po at 2 hrs; format: functional
[13] = tested on: Rattus norvegicus; assay: Anticonvulsant activity in albino Wistar rat assessed as protection against subcutaneous pentylenetetrazol-induced seizures at 50 mg/kg, po at 4 hrs; format: functional
[14] = tested on: Rattus norvegicus; assay: Anticonvulsant activity in po dosed albino Wistar rat assessed as protection against subcutaneous pentylenetetrazol-induced seizures at 4 hrs; format: functional
[15] = Neurotoxicity in po dosed albino Wistar rat at 4 hrs by rotorod test; format: toxicity, organism-based; details: in vivo
[16] = Protective index, ratio of TD50 for neurotoxicity in po dosed albino Wistar rat to ED50 for anticonvulsant activity in po dosed albino Wistar rat assessed as protection against subcutaneous pentylenetetrazol-induced seizures at 4 hrs; format: toxicity, organism-based; details: in vivo, read-out: Ratio TD50/ED50
[17] = Neurotoxicity in ip dosed albino Wistar rat at 4 hrs by rotorod test; format: toxicity, organism-based; details: in vivo
[18] = tested on: Rattus norvegicus; assay: Anticonvulsant activity in albino Wistar rat assessed as protection against maximal electroshock-induced seizures at 30 mg/kg, po at 0.25 hr; format: functional
[19] = tested on: Rattus norvegicus; assay: Anticonvulsant activity in albino Wistar rat assessed as protection against maximal electroshock-induced seizures at 30 mg/kg, po at 0.5 hr; format: functional
[20] = tested on: Rattus norvegicus; assay: Anticonvulsant activity in albino Wistar rat assessed as protection against maximal electroshock-induced seizures at 30 mg/kg, po at 1 hr; format: functional
[21] = tested on: Rattus norvegicus; assay: Anticonvulsant activity in albino Wistar rat assessed as protection against maximal electroshock-induced seizures at 30 mg/kg, po at 2 hrs; format: functional
[22] = tested on: Rattus norvegicus; assay: Anticonvulsant activity in albino Wistar rat assessed as protection against maximal electroshock-induced seizures at 30 mg/kg, po at 4 hrs; format: functional
[23] = tested on: Rattus norvegicus; assay: Anticonvulsant activity in po dosed albino Wistar rat assessed as protection against maximal electroshock-induced seizures at 2 hrs; format: functional
[24] = Neurotoxicity in po dosed albino Wistar rat at 2 hrs by rotorod test; format: toxicity, organism-based; details: in vivo
[25] = Protective index, ratio of TD50 for neurotoxicity in po dosed albino Wistar rat to ED50 for anticonvulsant activity in po dosed albino Wistar rat assessed as protection against maximal electroshock-induced seizures at 2 hrs; format: toxicity, organism-based; details: in vivo, read-out: Ratio TD50/ED50
[26] = tested on: Rattus norvegicus; assay: Neurotoxicity in albino Wistar rat at 300 mg/kg, ip at 0.5 hr by rotorod test; format: toxicity, organism-based; set-up: dose 300 mg/kg, route intraperitoneal; details: in vivo
[27] = tested on: Rattus norvegicus; assay: Anticonvulsant activity in po dosed albino Wistar rat assessed as protection against subcutaneous pentylenetetrazol-induced seizures at 2 hrs; format: functional
[28] = tested on: Rattus norvegicus; assay: Neurotoxicity in albino Wistar rat at 300 mg/kg, ip at 4 hrs by rotorod test; format: toxicity, organism-based; set-up: dose 300 mg/kg, route intraperitoneal; details: in vivo
[29] = in vivo; details: Wistar, rat, po
Description: Protective index, ratio of TD50 for neurotoxicity in po dosed albino Wistar rat to ED50 for anticonvulsant activity in po dosed albino Wistar rat assessed as protection against subcutaneous pentylenetetrazol-induced seizures at 2 hrs

[30] = tested on: Rattus norvegicus; assay: Anticonvulsant activity in po dosed albino Wistar rat assessed as protection against maximal electroshock-induced seizures at 1 hr; format: functional
[31] = Neurotoxicity in po dosed albino Wistar rat at 1 hr by rotorod test; format: toxicity, organism-based; details: in vivo
[32] = in vivo; details: Wistar, rat, po; remark: listed apart in the source
Description: Protective index, ratio of TD50 for neurotoxicity in po dosed albino Wistar rat to ED50 for anticonvulsant activity in po dosed albino Wistar rat assessed as protection against maximal electroshock-induced seizures at 1 hr

SMILES	MED50 [1] [mg/kg]	Activity [2]	Activity [3]	MED50 [4] [mg/kg]	MED50 [8] [mg/kg]	MTD at 0.5 h [9] [mg/kg]	Activity [10] [%]	Activity [11] [%]	MTD at 4 h [17] [mg/kg]	Activity [18] [%]	Activity [19] [%]	Activity [20] [%]	Activity [21] [%]	Activity [22] [%]	also measured
O=C1CC(c2noc3ccccc23)C(=O)N1c1ccc(Cl)cc1 (configuration not stated)	300	inactive	inactive	300											
O=C1CC(c2noc3ccccc23)C(=O)N1c1cccnc1 (configuration not stated)		inactive	inactive												Activity [5]: inactive; Activity [6]: inactive
O=C1CC(c2noc3ccccc23)C(=O)N1C1CCCCC1 (configuration not stated)	300			100	300	300	25	25	300						MED50 [7]: 100 mg/kg; Activity [12]: 25%; Activity [13]: 25%; ED50 [14]: 42.3 mg/kg; TD50 at 4 h [15]: > 150 mg/kg; selectivity ratio at 4 h [16]: > 3.54
CCCCN1C(=O)CC(c2noc3ccccc23)C1=O (configuration not stated)		inactive	inactive	100		100	25	25	100						Activity [5]: inactive
CCN1C(=O)CC(c2noc3ccccc23)C1=O (configuration not stated)	300	inactive	inactive	300											
O=C1CC(c2noc3ccccc23)C(=O)N1c1ccccc1 (configuration not stated)	30			300	100	100			300	25	25	50	50	50	MED50 [7]: 300 mg/kg
COc1ccc(N2C(=O)CC(c3noc4ccccc34)C2=O)cc1 (configuration not stated)	100	inactive		100	300	100	25	25	300	25	25	25	50	25	
O=C1CC(c2noc3ccccc23)C(=O)N1c1ccc(F)cc1 (configuration not stated)	30	inactive		100	30	300	25	25	300	25	50	75	100	100	Activity [12]: 25%; ED50 [23]: 14.9 mg/kg; TD50 at 2 h [24]: > 500 mg/kg; selectivity ratio at 2 h [25]: > 33.5
CCCN1C(=O)CC(c2noc3ccccc23)C1=O (configuration not stated)	300	inactive	inactive	300											
CCC1(C)CC(=O)NC1=O (configuration not stated) [ETHOSUXIMIDE]			inactive	100			50	25							Activity [5]: inactive; MED50 [7]: 300 mg/kg; Activity [26]: Non-toxic; Activity [12]: 25%; ED50 [27]: 167 mg/kg; TD50 at 2 h [24]: > 500 mg/kg; Activity [28]: Non-toxic; selectivity ratio at 2 h [29]: > 3
O=C1CC(c2noc3ccccc23)C(=O)N1c1ccccn1 (configuration not stated)	300	inactive	inactive	300											
O=C1NC(=O)C(c2ccccc2)(c2ccccc2)N1 [PHENYTOIN]	30	inactive	inactive			100			100	25	100	75	75	75	Activity [6]: inactive; ED50 [30]: 28.1 mg/kg; TD50 at 1 h [31]: > 100 mg/kg; selectivity ratio at 1 h [32]: > 3.55
O=C1CC(c2noc3ccccc23)C(=O)N1c1ccncc1 (configuration not stated)	300	inactive	inactive	300											
